# Where “and” joins values, the source holds several entries; their conditions need not be identical. Equal values may be shown once.
# Legend:
# [1] = test system: human primary hepatocytes; assay: Metabolic disposition of [^14C]-Compound 1 and [^14C]-2′-C-methyl guanosine in human primary hepatocytes (incubation medium, cellular extracts, nucleotide levels); assay type: in vitro ADME
# Protocol: Primary hepatocytes: Freshly isolated cells from animal and human liver were obtained in suspension on ice. Cells were pelleted by centrifugation at 70-75×g (rat) or 95-90×g (monkey and human) and resuspended at 0.8 million cells per mL of platting medium (William's E supplemented with 5% FBS, 0.5% penicillin-streptomycin, 1% L-glutamine, 4 μg/mL insulin and 1 μM dexamethasone). Multi-well collagen I-coated plates (rat tail collagen type I; 12- or 6-well) were then seeded by addition of 1 mL (12-well; 0.8 million cells/well) or 2 mL (6-well; 1.6 million cells/well) of cell suspension. The plates were gently shaken to evenly distribute the cells and placed in an incubator at 37° C. for approximately 4 to 6 hours to allow cells to attach. Once cells were attached, the platting medium was removed and replaced with hepatocyte culture medium (William's E supplemented with penicillin-streptomycin, 1% L-glutamine, 1% insulin-transferrin-selenium and 0.1 μM dexamethasone). Cells were left overnight in an incubator at 37° C. to acclimatize to culture and the medium.
# Hepatocyte incubations with radiolabeled Compound 1 and 2′-C-methyl guanosine, both labeled in the C-8 position of the guanine moiety, were conducted at a final volume of 2.0 mL hepatocyte culture medium/well ([…]). Culture medium from overnight incubation of cells was removed and replaced with fresh medium, pre-warmed to 37° C., containing 1 or 10 μM [^14C]-Compound 1 ([…]) or [^14C]-2′-C-methyl guanosine (127 DPM/μmol) from a stock solution in DMSO (final DMSO concentration was 0.1%) or 50% ethanol (final ethanol concentration was 0.2%). After 1, 4, 8 and 24 hours, 0.5-1.0 mL of incubation medium was removed and stored at −20° C. until analysis (described below). The remaining medium was discarded and cell monolayers were carefully washed two times with ice-cold PBS. Following the last wash, all PBS was carefully removed and 1.0 mL of extraction solution (ice-cold 70% methanol) added. Cells were scrapped off and suspended in the extraction solution, transferred to 2 mL polypropylene microfuge tubes and intracellular contents extracted overnight at −20° C.
# Preliminary identification of putative metabolites was conducted by comparing the retention time of observed metabolites in incubation medium and cellular extracts with retention times obtained with chemically synthesized standards using the chromatography conditions described below. Further identification of 2′-C-methyl guanosine nucleotides (mono-, di- and triphosphate) was carried out by incubating cellular extract samples with alkaline phosphatase (10 units for 60 min at 37° C.) and comparing the HPLC retention times of the resulting nucleosides with that of authentic 2′-C-methyl guanosine.
# Cellular extracts were prepared by centrifugation at 16,000 RCF using an Eppendorf microcentrifuge (Eppendorf, Model 5415D) for 10 min to remove cellular debris. An aliquot of 5-10 μL of the supernatant was added to 5 mL of EcoLite™ (MP, Irvine, Calif.) liquid scintillation cocktail and radioactivity measured by liquid scintillation counting (LSC) using a Beckman Coulter LS6500 multipurpose liquid scintillation counter (Beckman Instruments, Fullerton, Calif.). The remaining sample was then dried using a Labconco refrigerated centrivap concentrator (Labconco, Kansas City, Mo.). Dry extracts were reconstituted in 120 μL of HPLC-grade water and centrifuged at 16,000 RCF using an Eppendorf microcentrifuge for 10 min. Prior to HPLC analysis (described below), radioactivity of the concentrated extracts was measured by LSC using 5 μL aliquots. Extraction recovery was then determined by comparing total radioactivity in extracts before and after drying. The remaining extract was then analyzed by HPLC with online radioactivity detection using a Flow Scintillation Analyzer Radiomatic™ 515TR. Radioactivity in the separated components was quantified by integrating the peaks using Flo-One™ Software (Perkin Elmer Life Sciences). […]
# rat primary hepatocytes = assay: Metabolic disposition of [^14C]-Compound 1 and [^14C]-2′-C-methyl guanosine in rat primary hepatocytes (incubation medium, cellular extracts, nucleotide levels); assay type: in vitro ADME, Sprague Dawley rat
# In short: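 Rat, monkey or human primary hepatocytes on collagen I plates (1.6 million cells/mL) were incubated at 37° C with 1 or 10 μM C-8 [^14C]-labelled compound or 2′-C-methyl guanosine for 1, 4, 8 and 24 hours. Medium and 70% methanol cell extracts were analysed by LSC and radio-HPLC. Nucleotides were identified by alkaline phosphatase treatment and retention-time matching to standards.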
# [2] = human hepatocytes (Hu759, Hu775), 10 μM [^14C]-Compound 1, 1 h
# [3] = human hepatocytes (Hu759, Hu775), 10 μM [^14C]-Compound 1, 24 h
# [4] = human hepatocytes (Hu775), 1 μM [^14C]-Compound 1, 1 h
# [5] = human hepatocytes (Hu775), 1 μM [^14C]-Compound 1, 8 h
# [6] = human hepatocytes (Hu775), 1 μM [^14C]-Compound 1, 24 h
# [7] = rat hepatocytes (Rs448, Rs458), 10 μM [^14C]-Compound 1, 24 h
# [8] = rat hepatocytes (Rs458), 1 μM [^14C]-Compound 1, 1 h
# [9] = rat hepatocytes (Rs458), 1 μM [^14C]-Compound 1, 8 h
# [10] = rat hepatocytes (Rs458), 1 μM [^14C]-Compound 1, 24 h
compound,measurement,setting,value
"C[C@@]1(O)[C@H](O)[C@@H](COP(=O)(O)NCc2ccccc2)O[C@H]1n1cnc2c(=O)[nH]c(N)nc21 [Compound 2, [(2R)-2-methyl-β-D-ribofuranosyl]guanine-N-benzylaminyl-5′-monophosphate]",metabolites observed in cellular extracts (% of total radioactivity),[1]; [2],6.50% and 2.30%
same,metabolites observed in cellular extracts (% of total radioactivity),"[1]; human hepatocytes (Hu759, Hu775), 10 μM [^14C]-Compound 1, 8 h",BLD
same,metabolites observed in cellular extracts (% of total radioactivity),[1]; [3],BLD
same,metabolites observed in medium (% of total radioactivity),"[1]; human hepatocytes (Hu775), 1 μM [^14C]-Compound 1, 0 h",2.22%
same,metabolites observed in cellular extracts (% of total radioactivity),[1]; [4],4.94%
same,metabolites observed in medium (% of total radioactivity),[1]; [4],BLD
same,metabolites observed in cellular extracts (% of total radioactivity),[1]; [5],BLD
same,metabolites observed in medium (% of total radioactivity),[1]; [5],2.27%
same,metabolites observed in cellular extracts (% of total radioactivity),[1]; [6],BLD
same,metabolites observed in medium (% of total radioactivity),[1]; [6],1.7% and 1.72%
same,metabolites observed in medium (% of total radioactivity),"[1]; human hepatocytes (lots Hu759, Hu775), 10 μM [^14C]-Compound 1, 0 h",2.7% and 1.1%
same,metabolites observed in medium (% of total radioactivity),"[1]; human hepatocytes (lots Hu759, Hu775), 10 μM [^14C]-Compound 1, 4 h",1.8% and 0.8%
same,metabolites observed in medium (% of total radioactivity),"[1]; human hepatocytes (lots Hu759, Hu775), 10 μM [^14C]-Compound 1, 8 h",2.6% and 0.6%
same,metabolites observed in medium (% of total radioactivity),"[1]; human hepatocytes (lots Hu759, Hu775), 10 μM [^14C]-Compound 1, 24 h",2.7% and 0.7%
same,metabolites observed in cellular extracts (% of total radioactivity),"rat primary hepatocytes; rat hepatocytes (Rs448, Rs458), 10 μM [^14C]-Compound 1, 1 h, listed as Compd 2",1.92% and 3.48%
same,metabolites observed in cellular extracts (% of total radioactivity),"rat primary hepatocytes; rat hepatocytes (Rs448, Rs458), 10 μM [^14C]-Compound 1, 8 h",BLD
same,metabolites observed in cellular extracts (% of total radioactivity),rat primary hepatocytes; [7],BLD
same,metabolites observed in medium (% of total radioactivity),"rat primary hepatocytes; rat hepatocytes (Rs458), 1 μM [^14C]-Compound 1, 0 h",1.05%
same,metabolites observed in cellular extracts (% of total radioactivity),rat primary hepatocytes; [8],5.83%
same,metabolites observed in medium (% of total radioactivity),rat primary hepatocytes; [8],3.02%
same,metabolites observed in cellular extracts (% of total radioactivity),rat primary hepatocytes; [9],BLD
same,metabolites observed in medium (% of total radioactivity),rat primary hepatocytes; [9],9.52%
same,metabolites observed in cellular extracts (% of total radioactivity),rat primary hepatocytes; [10],BLD
same,metabolites observed in medium (% of total radioactivity),rat primary hepatocytes; [10],7% and 7.43%
same,metabolites observed in medium (% of total radioactivity),"rat primary hepatocytes; rat hepatocytes (lots Rs448, Rs458), 10 μM [^14C]-Compound 1, 0 h",2.2% and 1.5%
same,metabolites observed in medium (% of total radioactivity),"rat primary hepatocytes; rat hepatocytes (lots Rs448, Rs458), 10 μM [^14C]-Compound 1, 1 h",1.9% and 1.5%
same,metabolites observed in medium (% of total radioactivity),"rat primary hepatocytes; rat hepatocytes (lots Rs448, Rs458), 10 μM [^14C]-Compound 1, 4 h",5.3% and 5.1%
same,metabolites observed in medium (% of total radioactivity),"rat primary hepatocytes; rat hepatocytes (lots Rs448, Rs458), 10 μM [^14C]-Compound 1, 8 h",5.7% and 6.8%
same,metabolites observed in medium (% of total radioactivity),"rat primary hepatocytes; rat hepatocytes (lots Rs448, Rs458), 10 μM [^14C]-Compound 1, 24 h",3.7% and 4.6%
"CC(C)(CO)C(=O)SCCOP(=O)(NCc1ccccc1)OC[C@H]1O[C@@H](n2cnc3c(=O)[nH]c(N)nc32)[C@](C)(O)[C@@H]1O (mixture of isomers) [Compound 1, 3-hydroxy-2,2-dimethyl-thiopropionic acid S-(2-{[(2R,3R,4R,5R)-5-(2-amino-6-oxo-1,6-dihydro-purin-9-yl)-3,4-dihydroxy-4-methyl-tetrahydro-furan-2-ylmethoxy]-benzylamino-phosphoryloxy}-ethyl) ester]",metabolites observed in cellular extracts (% of total radioactivity),[1]; [2],31.1% and 23.9%
same,metabolites observed in cellular extracts (% of total radioactivity),"[1]; human hepatocytes (Hu759, Hu775), 10 μM [^14C]-Compound 1, 4 h",8.48% and 6.96%
same,metabolites observed in cellular extracts (% of total radioactivity),[1]; [3],1.38% and 1.59%
same,metabolites observed in cellular extracts (% of total radioactivity),[1]; [4],19.9%
same,metabolites observed in cellular extracts (% of total radioactivity),[1]; [5],4.07%
same,metabolites observed in cellular extracts (% of total radioactivity),[1]; [6],2.78%
same,decrease in Compound 1 medium levels,"[1]; human hepatocytes, 10 μM, 24 hours",38%
same,% Residual [^14C]-Compound 1 in incubation medium,"[1]; human primary hepatocytes (n=1), 1 μM, 0 h",97%
same,% Residual [^14C]-Compound 1 in incubation medium,"[1]; human primary hepatocytes (n=1), 1 μM, 1 h",100%
same,% Residual [^14C]-Compound 1 in incubation medium,"[1]; human primary hepatocytes (n=1), 1 μM, 8 h",78%
same,% Residual [^14C]-Compound 1 in incubation medium,"[1]; human primary hepatocytes (n=1), 1 μM, 24 h",51%
same,% Residual [^14C]-Compound 1 in incubation medium,"[1]; human primary hepatocytes (n=2), 10 μM, 0 h",97% and 98%
same,% Residual [^14C]-Compound 1 in incubation medium,"[1]; human primary hepatocytes (n=2), 10 μM, 1 h",94% and 97%
same,% Residual [^14C]-Compound 1 in incubation medium,"[1]; human primary hepatocytes (n=2), 10 μM, 4 h",91%
same,% Residual [^14C]-Compound 1 in incubation medium,"[1]; human primary hepatocytes (n=2), 10 μM, 8 h",84% and 79%
same,% Residual [^14C]-Compound 1 in incubation medium,"[1]; human primary hepatocytes (n=2), 10 μM, 24 h",63% and 60%
same,metabolites observed in cellular extracts (% of total radioactivity),"rat primary hepatocytes; rat hepatocytes (Rs448, Rs458), 10 μM [^14C]-Compound 1, 1 h, listed as Compd 1",15.0% and 19.7%
same,metabolites observed in cellular extracts (% of total radioactivity),"rat primary hepatocytes; rat hepatocytes (Rs448, Rs458), 10 μM [^14C]-Compound 1, 4 h, listed as Compd 1",3.86% and 4.02%
same,metabolites observed in cellular extracts (% of total radioactivity),"rat primary hepatocytes; rat hepatocytes (Rs448, Rs458), 10 μM [^14C]-Compound 1, 8 h, listed as Compd 1",1.20% and 0.95%
same,metabolites observed in cellular extracts (% of total radioactivity),rat primary hepatocytes; [7],undetected
same,metabolites observed in cellular extracts (% of total radioactivity),"rat primary hepatocytes; rat hepatocytes (Rs448, Rs458), 10 μM [^14C]-Compound 1, 24 h, listed as Compd 1",BLD
same,metabolites observed in cellular extracts (% of total radioactivity),rat primary hepatocytes; [8],12.3%
same,metabolites observed in cellular extracts (% of total radioactivity),rat primary hepatocytes; [9],BLD
same,metabolites observed in cellular extracts (% of total radioactivity),rat primary hepatocytes; [10],BLD
same,reduction in Compound 1 medium levels,"rat primary hepatocytes; rat hepatocytes, 1 μM, 8 hours",approximately 79%
same,decrease in Compound 1 medium levels,"rat primary hepatocytes; rat hepatocytes, 10 μM, 4 hours",~50%
same,% Residual [^14C]-Compound 1 in incubation medium,"rat primary hepatocytes; rat primary hepatocytes (n=1), 1 μM, 0 h",99%
same,% Residual [^14C]-Compound 1 in incubation medium,"rat primary hepatocytes; rat primary hepatocytes (n=1), 1 μM, 1 h",89%
same,% Residual [^14C]-Compound 1 in incubation medium,"rat primary hepatocytes; rat primary hepatocytes (n=1), 1 μM, 8 h",21%
same,% Residual [^14C]-Compound 1 in incubation medium,"rat primary hepatocytes; rat primary hepatocytes (n=1), 1 μM, 24 h",0%
same,% Residual [^14C]-Compound 1 in incubation medium,"rat primary hepatocytes; rat primary hepatocytes (n=2), 10 μM, 0 h",95% and 97%
same,% Residual [^14C]-Compound 1 in incubation medium,"rat primary hepatocytes; rat primary hepatocytes (n=2), 10 μM, 1 h",91% and 93%
same,% Residual [^14C]-Compound 1 in incubation medium,"rat primary hepatocytes; rat primary hepatocytes (n=2), 10 μM, 4 h",48% and 55%
same,% Residual [^14C]-Compound 1 in incubation medium,"rat primary hepatocytes; rat primary hepatocytes (n=2), 10 μM, 8 h",18% and 32%
same,% Residual [^14C]-Compound 1 in incubation medium,"rat primary hepatocytes; rat primary hepatocytes (n=2), 10 μM, 24 h",0%
